Data set [1] in a line: Ultrasound-triggered drug release from P-triblock P-105 micelles, real-time fluorescence detection. The note with it: for Drug release: 10% P-triblock P-105 micelles, 37° C.; for Drug release (mean and s.d.): 10% P-triblock. Format: physicochemical. An excerpt:
A custom ultrasonic exposure chamber with real-time fluorescence detection was used to measure acoustically-triggered drug release from P-triblock PLURONIC P-105 micelles under continuous wave (CW) or pulsed ultrasound in the frequency range of 20 kHz to 90 kHz. The measurements were based on the decrease in fluorescence intensity when drug was transferred from the micelle core to the aqueous environment. Two fluorescent drugs were used: doxorubicin (DOX) and its paramagnetic analogue, ruboxyl (Rb). P-triblock PLURONIC P-105 at various concentrations in aqueous solutions was used as a micelle-forming polymer. Drug release was highest at 20 kHz ultrasound and dropped with increasing ultrasonic frequency despite much higher power densities. […] The release of DOX was higher than that of Rb due to stronger interaction and deeper insertion of Rb into the core of the micelles. Drug release was higher at lower P-triblock concentrations, which presumably results from higher local drug concentrations in the core of P-triblock micelles when the number of micelles is low. At constant frequency, drug release increased with increasing power density. At constant power density and for pulse duration longer than 0.1 s, peak release under pulsed ultrasound was the same as stationary release under CW ultrasound.
Fluorescence of the drug was excited at an excitation wavelength of 488 nm with an optical power of approximately 0.5 mW in a 2 mm diameter beam. At this light intensity no photobleaching was observed, based on the constant level of drug fluorescence during continuing irradiation for 8 hours. The drug release was quantified by measuring the changes in fluorescence emissions before, during, and after the ultrasound exposure. A fiberoptic probe (a sheathed bundle of multimode glass fibers, 3 mm entrance diameter, 0.6 numerical aperture, and 90 cm in length) was used to collect the fluorescence emission. The light passed through a dielectric bandpass filter with a 35 nm bandwidth centered at 535 nm (Omega Optical Model 535DF35) to a sensitive silicon detector (EG&G Model 450-1). The filter effectively cuts off emissions below 500 nm, including any Rayleigh-scattered laser light. The detector signal was digitized using a 12-bit AID converter (National Instruments) and sent, along with the digitized monitor photodetector signal, to a Macintosh computer for storage and processing. The analog outputs of both photodetectors were also plotted on a stripchart recorder. The temperature of the ultrasonic exposure chamber was maintained at 37° C. by circulating thermostated water throughout the sonicating bath.
The experimental procedure is described below. First, fluorescence intensity of drug in phosphate buffered saline, PBS (FPBS) was measured; then, without any changes in the experimental setup, the PBS solution was carefully removed and replaced with the drug solution in P-triblock micelles. […] The base fluorescence of the micellar solution (Fmic) was measured, after which CW or pulsed ultrasound was turned on. During the “ultrasound on” phase, fluorescence dropped as shown in FIG. 19 due to drug release from the hydrophobic core of micelles into the aqueous environment.
Digitized data were analyzed, to calculate the percentage of drug release from micelles. To reduce the noise, the data were Fourier transformed, and a small magnitude narrow band noise of unknown origin and its next three harmonics were filtered out. After Fourier filtering, the data were smoothed using a 10 point moving average. An example of the raw and filtered data is presented in FIG. 19 for DOX release from 10% P-triblock micelles.
The percent of drug release was calculated assuming that Fmic-FPBS corresponds to 100% drug release:
Release (%)=[(Fmic−Fus)/(Fmic−FPBS)]×100% (1)
where Fus is fluorescence during exposure to ultrasound. […]

Data set [2] is described as follows: Rb localization in P-triblock micelles and P-gel nanoparticles (EPR and fluorescence). It is filed as physicochemical. The protocol:
A dry powder of the EPR probe (16-DS) was incubated with unstabilized or stabilized micellar solutions of P-triblock for 15 mm under constant shaking. Unsolubilized probe was removed by centrifugation. The concentration of a solubilized probe was measured by the EPR. The same technique of probe introduction was used for pyrene. Water solubility of 16-DS or pyrene is very low and can be neglected. Dissolved probes are associated with P-triblock molecules and thus reflect the loading capacity, dynamics and environment of the latter. For a fluorescent drug, Rb, the same concentration of Rb (20 μg/ml) was introduced into non-stabilized and stabilized micellar P-triblock solutions at 37° C. from a stock solution. Because fluorescence of Rb within P-triblock micelles is much higher than outside micelles, the fraction of the drug within micelles can be estimated as
where Fmes is a measured fluorescence intensity, Fm is Rb fluorescence intensity when all the drug is localized in the hydrophobic core of micelles (measured in a 20% P-triblock solution at 37° C.), Fs is fluorescence intensity in non-micellar solutions (i.e., in PBS), and am is the fraction of the drug located in the hydrophobic core of micelles.
Rb was used as a spin- and fluorescent probe to monitor drug distribution in P-triblock micelles and P-gel nanoparticles.
The anthraquinone part of Rb molecule is inherently fluorescent. Rb fluorescence is quenched in collisions with water molecules; when Rb molecules are screened from collisions with water, theft fluorescence increases manifold.

Data set [3] deals with blood proteins (albumin, fibrinogen). To be noted: reported elsewhere [82]; cited from earlier work.

SMILES strings stand for the structures. “And” between values parts separate entries of the source, which are not always exact repeats. Identical values can stand only once.

Turning to `COc1cccc2c1C(=O)c1c(O)c3c(c(O)c1C2=O)C[C@@](O)(C(=O)CO)C[C@@H]3O[C@H]1C[C@H](N)[C@H](O)[C@H](C)O1` [DOX, doxorubicin], the Drug release in data set [1] (20 kHz, 0.033 W/cm^2) was determined as 4.6 ± 0.5%; in data set [1] (20 kHz, 0.047 W/cm^2), 6.5 ± 1.1%; in data set [1] (20 kHz, 0.058 W/cm^2) it was 9.2 ± 0.56%; in data set [1] (67 kHz, 0.15 W/cm^2), 0%; in data set [1] (67 kHz, CW, 1.35 W/cm^2) it was 5.4 ± 2.3%; in data set [1] (67 kHz, CW, 1.66 W/cm^2), 8.1 ± 2.1%. For the same compound, the Drug release in data set [1] (67 kHz, CW, 2.8 W/cm^2) worked out at 10.7 ± 0.8%. Moreover, the “Drug release (mean and s.d.)” value is on record as 5.5%±1% in data set [1] (drug concentration 30 μg/ml, 67 kHz, 2.8 W/cm^2) and 10%±1% in data set [1] (drug concentration 40 μg/ml, 67 kHz, 2.8 W/cm^2).
For the compound `COc1cccc2c1C(=O)c1c(O)c3c(c(O)c1C2=O)C[C@@](O)(/C(C)=N/N=C1CC(C)(C)N(O)C(C)(C)C1)C[C@@H]3O[C@H]1C[C@H](N)[C@H](O)[C@H](C)O1.Cl` [Rb, Ruboxyl], the Drug release is 0.8 ± 0.25% in data set [1] (67 kHz, CW, 1.35 W/cm^2); 3.2 ± 0.9% in data set [1] (67 kHz, CW, 1.66 W/cm^2); 5.5% and 5.5 ± 1.5% in data set [1] (67 kHz, CW, 2.8 W/cm^2). In addition, the “Drug Release from P-triblock Micelles” value is given as “Traces” in data set [1] (20 kHz, 0.021 W/cm^2) and “traces” in data set [1] (90 kHz, 1.66 W/cm^2). Moreover, the “overall fraction of the drug in the cores of P-gel nanoparticle” value in data set [2] (EPR, P-gel heated to 37° C.) worked out at 73%. Further, the “fraction of rotationally restricted molecules” value is recorded as 71% in data set [2] (EPR, room temperature, 10% P-triblock solution without a hydrogel) and 78% in data set [2] (EPR, room temperature, 10% P-triblock/1% poly(NiPAAm) P-gel nanoparticles). The “fraction of Rb molecules localized in the hydrophobic environment of micelle cores” value in data set [2] (fluorescence, room temperature, 10% P-triblock solutions) is “about 70%”. In addition, in data set [3], the “adsorption or binding to blood proteins (albumin, fibrinogen)” value is “negligible”.

The values are drawn from patent US6649702B1, “Stabilization and acoustic activation of polymeric micelles for drug delivery” (University of Utah Research Foundation, priority 1999, dated 2003).
